# Measured values: US20060112494A1, “Method of protecting an animal skin product from metalloproteinase activity” (priority 2004, published 2006)
# Like-named read-outs stand apart in the source and are kept apart here.
# Columns and labels:
# [1] = test system: mixed bacteria on fresh hide samples; set-up: Growth/Days 2 / Growth/Days 4: key to the marks not given beside the values; settings: for Growth/Days 1: day 1; for Growth/Days 2: day 2; for Growth/Days 4: day 4;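 for all read-outs here: fresh hide pieces laid on inhibitor-containing nutrient agar supplemented with 0.5% Azocoll, incubated at 30 °C, then scored for growth of bacteria originating from the hide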
# [2] = test system: Aeromonas salmonicida; set-up: key to the marks not given beside the values; settings: for Growth/Days 1: day 1; for Growth/Days 2: day 2; for Growth/Days 7: day 7
# Method: (§1) Nutrient agar amended with Azocoll (a substrate made up of insoluble particles of collagen impregnated with a bright azo dye) was used as the test medium to study collagenase activity. The nutrient agar was prepared and autoclaved and then was cooled to 55° C. Azocol was added to give a final concentration of 0.5%. […] Using a sterile spatula or cork-borer, the middle portion of each plate of about the size of a United States quarter, was scooped out. Fresh nutrient agar-azocoll medium containing no inhibitor was added to replace the scooped out portion of the plate. […] The bacteria were grown overnight on nutrient agar. A suspension of each culture was made in sterile water and used to inoculate the middle portion of each plate. The treated samples were incubated at 30° C. and evaluated after 24 hours, 2 days and 7 days for collagenase activity and also for the growth of the bacteria. The test cultures secreted collagenase into the medium as they grew to degrade the collagen in the azocoll medium, and collagenase activity was determined by visual inspection of the clear zone around the bacteria. All % are by weight percent of the active ingredient.
# [3] = test system: collagenase; settings: for Collagenase Activity/Days 1: day 1; for Collagenase Activity/Days 2: day 2; for Collagenase Activity/Days 7: day 7;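 for Collagenase Activity/Days 4: nutrient agar containing 0.5% Azocoll with inhibitor, topped by a fresh hide piece, kept at 30 °C, collagenase from hide bacteria scored visually as clearing zone around growth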
# Method: Nutrient agar amended with 0.5% AZOCOLL was used as the test medium to study collagenase activity. The nutrient agar was prepared and autoclaved and then was cooled to 55° C. Azocol was added to give a final concentration of 0.5%. […] Fresh hides were obtained from a tannery and were cut into pieces of approximately 2 cm square. One 2×2 cm hide sample was placed on top of the agar containing the inhibitors. Treated samples were incubated at 30° C. and evaluated after 24 hours, 2 days, 3 or 4 days and 7 days for collagenase activity and also for the growth of the bacteria. The bacteria from the hides secreted collagenase into the medium as they grew to degrade the collagen in the azocoll medium and collagenase activity was determined by visual inspection of the clear zone around the bacteria
# [4] = test system: collagenase; settings: for Collagenase Activity/Days 1: day 1; for Collagenase Activity/Days 2: day 2; for Collagenase Activity/Days 7: day 7; remark: listed apart in the source;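 for Collagenase Activity/Days 4: nutrient agar containing 0.5% Azocoll with inhibitor, topped by a fresh hide piece, kept at 30 °C, collagenase from hide bacteria scored visually as clearing zone around growth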
# [5] = test system: collagenase; settings: for Collagenase Activity/Days 1: day 1; for Collagenase Activity/Days 2: day 2; for Collagenase Activity/Days 7: day 7; remark: listed apart in the source;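 for Collagenase Activity/Days 4: nutrient agar containing 0.5% Azocoll with inhibitor, topped by a fresh hide piece, kept at 30 °C, collagenase from hide bacteria scored visually as clearing zone around growth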
# [6] = test system: Pseudomonas fluorescens; settings: for Growth/Days 1: day 1; for Growth/Days 2: day 2; for Growth/Days 7: day 7
# Method: as §1
structure (smiles),measurement,setting,value
"O=C(O)CN(CCOCCOCCN(CC(=O)O)CC(=O)O)CC(=O)O [Na4EGTA, ethylene glycol-bis(β-aminoethylether)-N,N,N′N′-tetraacetic acid]",Growth/Days 1,[1]; Conc. 0.025%,++++
same,Growth/Days 2,[1]; Conc. 0.025%,++++
same,Growth/Days 4,[1]; Conc. 0.025%,++++
same,Growth/Days 1,[1]; Conc. 0.05%,++++
same,Growth/Days 2,[1]; Conc. 0.05%,++++
same,Growth/Days 4,[1]; Conc. 0.05%,++++
same,Growth/Days 1,[1]; Conc. 0.075%,++++
same,Growth/Days 2,[1]; Conc. 0.075%,++++
same,Growth/Days 4,[1]; Conc. 0.075%,++++
same,Growth/Days 1,[1]; Conc. 0.1%,++++
same,Growth/Days 2,[1]; Conc. 0.1%,++++
same,Growth/Days 4,[1]; Conc. 0.1%,++++
same,Growth/Days 1,[1]; Conc. 0.2%,++++
same,Growth/Days 2,[1]; Conc. 0.2%,++++
same,Growth/Days 4,[1]; Conc. 0.2%,++++
same,Growth/Days 1,[1]; Conc. 0.3%,++++
same,Growth/Days 2,[1]; Conc. 0.3%,++++
same,Growth/Days 4,[1]; Conc. 0.3%,++++
same,Growth/Days 1,[1]; Conc. 0.4%,+++
same,Growth/Days 2,[1]; Conc. 0.4%,++++
same,Growth/Days 4,[1]; Conc. 0.4%,++++
same,Growth/Days 1,[1]; Conc. 0.5%,+++
same,Growth/Days 2,[1]; Conc. 0.5%,++++
same,Growth/Days 4,[1]; Conc. 0.5%,++++
same,Growth/Days 1,[2]; Conc. 0.1%,++++
same,Growth/Days 2,[2]; Conc. 0.1%,++++
same,Growth/Days 7,[2]; Conc. 0.1%,++++
same,Growth/Days 1,[2]; Conc. 0.25%,++++
same,Growth/Days 2,[2]; Conc. 0.25%,++++
same,Growth/Days 7,[2]; Conc. 0.25%,++++
same,Growth/Days 1,[2]; Conc. 0.5%,++++
same,Growth/Days 2,[2]; Conc. 0.5%,++++
same,Growth/Days 7,[2]; Conc. 0.5%,++++
same,Collagenase Activity/Days 1,[3]; Conc. 0.025%,++++
same,Collagenase Activity/Days 2,[3]; Conc. 0.025%,++++
same,Collagenase Activity/Days 4,"[3]; Conc. 0.025%, day 4",++++
same,Collagenase Activity/Days 7,[3]; Conc. 0.025%,++++
same,Collagenase Activity/Days 4,"[3]; Conc. 0.05%, day 4",++++
same,Collagenase Activity/Days 1,[3]; Conc. 0.075%,0
same,Collagenase Activity/Days 4,"[3]; Conc. 0.075%, day 4",++++
same,Collagenase Activity/Days 1,[3]; Conc. 0.1%,0
same,Collagenase Activity/Days 2,[3]; Conc. 0.1%,0
same,Collagenase Activity/Days 4,"[3]; Conc. 0.1%, day 4",+
same,Collagenase Activity/Days 1,[3]; Conc. 0.2%,0
same,Collagenase Activity/Days 2,[3]; Conc. 0.2%,0
same,Collagenase Activity/Days 4,"[3]; Conc. 0.2%, day 4",+
same,Collagenase Activity/Days 1,[3]; Conc. 0.3%,0
same,Collagenase Activity/Days 2,[3]; Conc. 0.3%,0
same,Collagenase Activity/Days 4,"[3]; Conc. 0.3%, day 4",+
same,Collagenase Activity/Days 1,[3]; Conc. 0.4%,0
same,Collagenase Activity/Days 2,[3]; Conc. 0.4%,0
same,Collagenase Activity/Days 4,"[3]; Conc. 0.4%, day 4",0
same,Collagenase Activity/Days 4,"[3]; Conc. 0.5%, column day 4, footnote **: data collected on Day 3",0**
same,Collagenase Activity/Days 1,[3]; Conc. 0.5%,0
same,Collagenase Activity/Days 2,[3]; Conc. 0.5%,0
same,Collagenase Activity/Days 7,[3]; Conc. 0.5%,0
same,performance as collagenase inhibitors (summary in words),[3]; collagenase produced by the mixed culture of bacteria from the hides,performed very well as collagenase inhibitors
same,Collagenase Activity/Days 1,[4]; Conc. 0.1%,0
same,Collagenase Activity/Days 2,[4]; Conc. 0.1%,0
same,Collagenase Activity/Days 1,[4]; Conc. 0.25%,0
same,Collagenase Activity/Days 2,[4]; Conc. 0.25%,0
same,Collagenase Activity/Days 7,[4]; Conc. 0.25%,0
same,Collagenase Activity/Days 1,[4]; Conc. 0.5%,0
same,Collagenase Activity/Days 2,[4]; Conc. 0.5%,0
same,Collagenase Activity/Days 7,[4]; Conc. 0.5%,0
same,performance as collagenase inhibitors (summary in words),"[4]; collagenase produced by the bacteria studied, Table 2",performed very well as collagenase inhibitors
same,Collagenase Activity/Days 1,[5]; Conc. 0.025%,++++
same,Collagenase Activity/Days 2,[5]; Conc. 0.025%,++++
same,Collagenase Activity/Days 7,[5]; Conc. 0.025%,++++
same,Collagenase Activity/Days 1,[5]; Conc. 0.075%,0
same,Collagenase Activity/Days 1,[5]; Conc. 0.1%,0
same,Collagenase Activity/Days 2,[5]; Conc. 0.1%,0
same,Collagenase Activity/Days 1,[5]; Conc. 0.2%,0
same,Collagenase Activity/Days 2,[5]; Conc. 0.2%,0
same,Collagenase Activity/Days 1,[5]; Conc. 0.3%,0
same,Collagenase Activity/Days 2,[5]; Conc. 0.3%,0
same,Collagenase Activity/Days 1,[5]; Conc. 0.4%,0
same,Collagenase Activity/Days 2,[5]; Conc. 0.4%,0
same,Collagenase Activity/Days 1,[5]; Conc. 0.5%,0
same,Collagenase Activity/Days 2,[5]; Conc. 0.5%,0
same,Collagenase Activity/Days 7,[5]; Conc. 0.5%,0
same,performance as collagenase inhibitors (summary in words),"[5]; collagenase produced by the bacteria studied, Table 1",performed very well as collagenase inhibitors
same,Growth/Days 1,[6]; Conc. 0.025%,++++
same,Growth/Days 2,[6]; Conc. 0.025%,++++
same,Growth/Days 7,[6]; Conc. 0.025%,++++
same,Growth/Days 1,[6]; Conc. 0.05%,++++
same,Growth/Days 2,[6]; Conc. 0.05%,++++
same,Growth/Days 7,[6]; Conc. 0.05%,++++
same,Growth/Days 1,[6]; Conc. 0.075%,++++
same,Growth/Days 2,[6]; Conc. 0.075%,++++
same,Growth/Days 7,[6]; Conc. 0.075%,++++
same,Growth/Days 1,[6]; Conc. 0.1%,++++
same,Growth/Days 2,[6]; Conc. 0.1%,++++
same,Growth/Days 7,[6]; Conc. 0.1%,++++
same,Growth/Days 1,[6]; Conc. 0.2%,++++
same,Growth/Days 2,[6]; Conc. 0.2%,++++
same,Growth/Days 7,[6]; Conc. 0.2%,++++
same,Growth/Days 1,[6]; Conc. 0.3%,++++
same,Growth/Days 2,[6]; Conc. 0.3%,++++
same,Growth/Days 7,[6]; Conc. 0.3%,++++
same,Growth/Days 1,[6]; Conc. 0.4%,++++
same,Growth/Days 2,[6]; Conc. 0.4%,++++
same,Growth/Days 7,[6]; Conc. 0.4%,++++
same,Growth/Days 1,[6]; Conc. 0.5%,++++
same,Growth/Days 2,[6]; Conc. 0.5%,++++
same,Growth/Days 7,[6]; Conc. 0.5%,++++
